Laboratory results taken from patent US20230085307A1, “PYRIDAZINONE COMPOUND AND HERBICIDE” (NISSAN CHEMICAL CORPORATION, priority 2019, published 2023).

What was measured:
barnyard grass [1] = assay: Test Example 3: herbicidal effect by foliage application, Wagner pot (Table 18, symbol H); type: in vivo, barnyard grass (Echinochloa crus-galli); conditions: for Herbicidal effect on H (barnyard grass), foliage application: amount of applied herbicide 320 g/ha
Outline: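 Plants were sown in alluvial soil held under 0.1–0.5 cm standing water and grown 14 days in a greenhouse at 25–30 °C. An emulsifiable formulation, water-diluted to the set dose, was then sprayed onto the foliage, and effects were scored three weeks later using previously defined criteria.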

chickweed = assay: Test Example 4: herbicidal effect by soil treatment (Table 19, symbol P); type: in vivo, common chickweed (Stellaria media); conditions: amount of applied herbicide 320 g/ha
Outline: (§1)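 Seeds were sown in sterilized diluvial soil and covered with about 1.5 cm of soil. An emulsion formulation diluted with water to a predetermined herbicide amount was sprayed evenly onto the soil surface. Plants grew in a greenhouse at 25° C. to 30° C., and the effect was scored three weeks after application using criteria from an earlier test.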

barnyard grass [2] = assay: Test Example 4: herbicidal effect by soil treatment (Table 19, symbol H); type: in vivo, barnyard grass (Echinochloa crus-galli); conditions: amount of applied herbicide 320 g/ha
Outline: as §1

velvetleaf [3] = assay: Test Example 5: herbicidal effect by foliage application, plastic box (Table 20, symbol M); type: in vivo, velvetleaf (Abutilon theophrasti); conditions: foliage application, 320 g/ha, three weeks after application
Outline: (§2)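 Plants sown in sterilized diluvial soil and grown 14 days in a greenhouse at 25° C to 30° C, then sprayed on the foliage with the compound's emulsion diluted in water to a predetermined herbicide amount. Injury to weeds and crops scored three weeks after application on a visual rating scale.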

velvetleaf [4] = assay: Test Example 4: herbicidal effect by soil treatment (Table 19, symbol M); type: in vivo, velvetleaf (Abutilon theophrasti); conditions: amount of applied herbicide 320 g/ha
Outline: as §1

blackgrass [5] = assay: Test Example 5: herbicidal effect by foliage application, plastic box (Table 20, symbol J); type: in vivo, blackgrass (Alopecurus myosuroides); conditions: foliage application, 320 g/ha, three weeks after application
Outline: as §2

Japanese bulrush = assay: Test Example 2: herbicidal activity, application during weed generation under submerged conditions (Table 17, symbol B); type: in vivo, Japanese bulrush (Schoenoplectus juncoides); conditions: AAH 320 g/ha; application during weed generation, submerged conditions
Outline: (§3)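 Mixed weed seedlings in alluvial soil under a 4 cm water layer, greenhouse-grown at 25–30° C. Compound given as a diluted emulsion into the floodwater at the 1–2 leaf stage; response graded after three weeks.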

persian speedwell = assay: Test Example 5: herbicidal effect by foliage application, plastic box (Table 20, symbol R); type: in vivo, Persian speedwell (Veronica persica); conditions: foliage application, 320 g/ha, three weeks after application
Outline: as §2

late watergrass = assay: Test Example 2: herbicidal activity, application during weed generation under submerged conditions (Table 17, symbol A); type: in vivo, late watergrass (Echinochloa oryzicola); conditions: AAH 320 g/ha; application during weed generation, submerged conditions
Outline: as §3

blackgrass [6] = assay: Test Example 4: herbicidal effect by soil treatment (Table 19, symbol J); type: in vivo, blackgrass (Alopecurus myosuroides); conditions: amount of applied herbicide 320 g/ha
Outline: as §1

wild oat = assay: Test Example 4: herbicidal effect by soil treatment (Table 19, symbol I); type: in vivo, wild oat (Avena fatua); conditions: amount of applied herbicide 320 g/ha
Outline: as §1

lambsquarters = assay: Test Example 4: herbicidal effect by soil treatment (Table 19, symbol O); type: in vivo, lambsquarters (Chenopodium album); conditions: amount of applied herbicide 320 g/ha
Outline: as §1

green foxtail = assay: Test Example 4: herbicidal effect by soil treatment (Table 19, symbol G); type: in vivo, green foxtail (Setaria viridis); conditions: amount of applied herbicide 320 g/ha
Outline: as §1

Italian ryegrass [7] = assay: Test Example 4: herbicidal effect by soil treatment (Table 19, symbol K); type: in vivo, Italian ryegrass (Lolium multiflorum); conditions: amount of applied herbicide 320 g/ha
Outline: as §1

Italian ryegrass [8] = assay: Test Example 5: herbicidal effect by foliage application, plastic box (Table 20, symbol K); type: in vivo, Italian ryegrass (Lolium multiflorum); conditions: foliage application, 320 g/ha, three weeks after application
Outline: as §2

CCOc1cc(F)ccc1-c1sc2cc(C)c(C)cc2c1-c1c(O)c(C)nn(C)c1=O [5-103]
herbicidal effect on barnyard grass (H) (barnyard grass [1]; 320 g/ha): 5 (Herbicidal rate of 90% or more (almost completely withered)) | P: chickweed, herbicidal effect grade (chickweed): 3 (Herbicidal rate of 40% or more and less than 70%) | H: barnyard grass, herbicidal effect grade (barnyard grass [2]): 1 (Herbicidal rate of 5% or more and less than 20%) | herbicidal effect on velvetleaf (M) (velvetleaf [3]): 5 (Herbicidal rate of 90% or more (almost completely withered)) | M: velvetleaf, herbicidal effect grade (velvetleaf [4]): 1 (Herbicidal rate of 5% or more and less than 20%) | herbicidal effect on blackgrass (J) (blackgrass [5]): 4 (Herbicidal rate of 70% or more and less than 90%) | herbicidal effect rating, B: Japanese bulrush (Japanese bulrush): 3 (Herbicidal rate of 40% or more and less than 70%) | herbicidal effect on persian speedwell (R) (persian speedwell): 5 (Herbicidal rate of 90% or more (almost completely withered)) | herbicidal effect rating, A: late watergrass (late watergrass): 2 (Herbicidal rate of 20% or more and less than 40%) | J: blackgrass, herbicidal effect grade (blackgrass [6]): 0 (Herbicidal rate of 5% or less (almost no effect)) | I: wild oat, herbicidal effect grade (wild oat): 0 (Herbicidal rate of 5% or less (almost no effect)) | O: lambsquarters, herbicidal effect grade (lambsquarters): 2 (Herbicidal rate of 20% or more and less than 40%) | G: green foxtail, herbicidal effect grade (green foxtail): 3 (Herbicidal rate of 40% or more and less than 70%) | K: Italian ryegrass, herbicidal effect grade (Italian ryegrass [7]): 1 (Herbicidal rate of 5% or more and less than 20%) | herbicidal effect on Italian ryegrass (K) (Italian ryegrass [8]): 4 (Herbicidal rate of 70% or more and less than 90%)

CCOc1ccc2c(-c3c(O)c(C)nn(C)c3=O)c(-c3ccccc3OC)sc2c1Cl [7-003]
Herbicidal effect on H (barnyard grass), foliage application (barnyard grass [1]): 4 (Herbicidal rate of 70% or more and less than 90%) | P: chickweed, herbicidal effect grade (chickweed): 4 (Herbicidal rate of 70% or more and less than 90%) | H: barnyard grass, herbicidal effect grade (barnyard grass [2]): 0 (Herbicidal rate of 5% or less (almost no effect)) | herbicidal effect on velvetleaf (M) (velvetleaf [3]): 5 (Herbicidal rate of 90% or more (almost completely withered)) | M: velvetleaf, herbicidal effect grade (velvetleaf [4]): 3 (Herbicidal rate of 40% or more and less than 70%) | herbicidal effect on blackgrass (J) (blackgrass [5]): 4 (Herbicidal rate of 70% or more and less than 90%) | herbicidal effect rating, B: Japanese bulrush (Japanese bulrush): 3 (Herbicidal rate of 40% or more and less than 70%) | herbicidal effect on persian speedwell (R) (persian speedwell): 5 (Herbicidal rate of 90% or more (almost completely withered)) | herbicidal effect rating, A: late watergrass (late watergrass): 0 (Herbicidal rate of 5% or less (almost no effect)) | J: blackgrass, herbicidal effect grade (blackgrass [6]): 0 (Herbicidal rate of 5% or less (almost no effect)) | I: wild oat, herbicidal effect grade (wild oat): 0 (Herbicidal rate of 5% or less (almost no effect)) | O: lambsquarters, herbicidal effect grade (lambsquarters): 4 (Herbicidal rate of 70% or more and less than 90%) | G: green foxtail, herbicidal effect grade (green foxtail): 0 (Herbicidal rate of 5% or less (almost no effect)) | K: Italian ryegrass, herbicidal effect grade (Italian ryegrass [7]): 0 (Herbicidal rate of 5% or less (almost no effect)) | herbicidal effect on Italian ryegrass (K) (Italian ryegrass [8]): 4 (Herbicidal rate of 70% or more and less than 90%)

CCOc1ccccc1-c1sc2c(Cl)c(OCC)ccc2c1-c1c(O)c(C)nn(C)c1=O [7-004]
Herbicidal effect on H (barnyard grass), foliage application (barnyard grass [1]): 5 (Herbicidal rate of 90% or more (almost completely withered)) | P: chickweed, herbicidal effect grade (chickweed): 4 (Herbicidal rate of 70% or more and less than 90%) | H: barnyard grass, herbicidal effect grade (barnyard grass [2]): 3 (Herbicidal rate of 40% or more and less than 70%) | herbicidal effect on velvetleaf (M) (velvetleaf [3]): 4 (Herbicidal rate of 70% or more and less than 90%) | M: velvetleaf, herbicidal effect grade (velvetleaf [4]): 3 (Herbicidal rate of 40% or more and less than 70%) | herbicidal effect on blackgrass (J) (blackgrass [5]): 5 (Herbicidal rate of 90% or more (almost completely withered)) | herbicidal effect rating, B: Japanese bulrush (Japanese bulrush): 3 (Herbicidal rate of 40% or more and less than 70%) | herbicidal effect on persian speedwell (R) (persian speedwell): 5 (Herbicidal rate of 90% or more (almost completely withered)) | herbicidal effect rating, A: late watergrass (late watergrass): 3 (Herbicidal rate of 40% or more and less than 70%) | J: blackgrass, herbicidal effect grade (blackgrass [6]): 0 (Herbicidal rate of 5% or less (almost no effect)) | I: wild oat, herbicidal effect grade (wild oat): 0 (Herbicidal rate of 5% or less (almost no effect)) | O: lambsquarters, herbicidal effect grade (lambsquarters): 4 (Herbicidal rate of 70% or more and less than 90%) | G: green foxtail, herbicidal effect grade (green foxtail): 5 (Herbicidal rate of 90% or more (almost completely withered)) | K: Italian ryegrass, herbicidal effect grade (Italian ryegrass [7]): 4 (Herbicidal rate of 70% or more and less than 90%) | herbicidal effect on Italian ryegrass (K) (Italian ryegrass [8]): 4 (Herbicidal rate of 70% or more and less than 90%)

Cc1nn(C)c(=O)c(-c2c(-c3ccc(OCC(F)(F)F)cc3)oc3ccccc23)c1O [8-005]
Herbicidal effect on H (barnyard grass), foliage application (barnyard grass [1]): 5 (Herbicidal rate of 90% or more (almost completely withered)) | P: chickweed, herbicidal effect grade (chickweed): 2 (Herbicidal rate of 20% or more and less than 40%) | H: barnyard grass, herbicidal effect grade (barnyard grass [2]): 5 (Herbicidal rate of 90% or more (almost completely withered)) | herbicidal effect on velvetleaf (M) (velvetleaf [3]): 5 (Herbicidal rate of 90% or more (almost completely withered)) | M: velvetleaf, herbicidal effect grade (velvetleaf [4]): 3 (Herbicidal rate of 40% or more and less than 70%) | herbicidal effect on blackgrass (J) (blackgrass [5]): 4 (Herbicidal rate of 70% or more and less than 90%) | herbicidal effect rating, B: Japanese bulrush (Japanese bulrush): 3 (Herbicidal rate of 40% or more and less than 70%) | herbicidal effect on persian speedwell (R) (persian speedwell): 5 (Herbicidal rate of 90% or more (almost completely withered)) | herbicidal effect rating, A: late watergrass (late watergrass): 4 (Herbicidal rate of 70% or more and less than 90%) | J: blackgrass, herbicidal effect grade (blackgrass [6]): 3 (Herbicidal rate of 40% or more and less than 70%) | I: wild oat, herbicidal effect grade (wild oat): 0 (Herbicidal rate of 5% or less (almost no effect)) | O: lambsquarters, herbicidal effect grade (lambsquarters): 4 (Herbicidal rate of 70% or more and less than 90%) | G: green foxtail, herbicidal effect grade (green foxtail): 4 (Herbicidal rate of 70% or more and less than 90%) | K: Italian ryegrass, herbicidal effect grade (Italian ryegrass [7]): 5 (Herbicidal rate of 90% or more (almost completely withered)) | herbicidal effect on Italian ryegrass (K) (Italian ryegrass [8]): 5 (Herbicidal rate of 90% or more (almost completely withered))

CSCCOc1ccc(-c2oc3ccccc3c2-c2c(O)c(C)nn(C)c2=O)cc1 [8-008]
Herbicidal effect on H (barnyard grass), foliage application (barnyard grass [1]): 5 (Herbicidal rate of 90% or more (almost completely withered)) | P: chickweed, herbicidal effect grade (chickweed): 5 (Herbicidal rate of 90% or more (almost completely withered)) | H: barnyard grass, herbicidal effect grade (barnyard grass [2]): 5 (Herbicidal rate of 90% or more (almost completely withered)) | herbicidal effect on velvetleaf (M) (velvetleaf [3]): 5 (Herbicidal rate of 90% or more (almost completely withered)) | M: velvetleaf, herbicidal effect grade (velvetleaf [4]): 2 (Herbicidal rate of 20% or more and less than 40%) | herbicidal effect on blackgrass (J) (blackgrass [5]): 5 (Herbicidal rate of 90% or more (almost completely withered)) | herbicidal effect rating, B: Japanese bulrush (Japanese bulrush): 3 (Herbicidal rate of 40% or more and less than 70%) | herbicidal effect on persian speedwell (R) (persian speedwell): 5 (Herbicidal rate of 90% or more (almost completely withered)) | herbicidal effect rating, A: late watergrass (late watergrass): 2 (Herbicidal rate of 20% or more and less than 40%) | J: blackgrass, herbicidal effect grade (blackgrass [6]): 0 (Herbicidal rate of 5% or less (almost no effect)) | I: wild oat, herbicidal effect grade (wild oat): 0 (Herbicidal rate of 5% or less (almost no effect)) | O: lambsquarters, herbicidal effect grade (lambsquarters): 4 (Herbicidal rate of 70% or more and less than 90%) | G: green foxtail, herbicidal effect grade (green foxtail): 1 (Herbicidal rate of 5% or more and less than 20%) | K: Italian ryegrass, herbicidal effect grade (Italian ryegrass [7]): 4 (Herbicidal rate of 70% or more and less than 90%) | herbicidal effect on Italian ryegrass (K) (Italian ryegrass [8]): 5 (Herbicidal rate of 90% or more (almost completely withered))

COc1ccc(-c2oc3ccc(Cl)cc3c2-c2c(O)c(C)nn(C)c2=O)cc1 [9-002]
Herbicidal effect on H (barnyard grass), foliage application (barnyard grass [1]): 3 (Herbicidal rate of 40% or more and less than 70%) | P: chickweed, herbicidal effect grade (chickweed): 4 (Herbicidal rate of 70% or more and less than 90%) | H: barnyard grass, herbicidal effect grade (barnyard grass [2]): 2 (Herbicidal rate of 20% or more and less than 40%) | herbicidal effect on velvetleaf (M) (velvetleaf [3]): 5 (Herbicidal rate of 90% or more (almost completely withered)) | M: velvetleaf, herbicidal effect grade (velvetleaf [4]): 2 (Herbicidal rate of 20% or more and less than 40%) | herbicidal effect on blackgrass (J) (blackgrass [5]): 0 (Herbicidal rate of 5% or less (almost no effect)) | herbicidal effect rating, B: Japanese bulrush (Japanese bulrush): 0 (Herbicidal rate of 5% or less (almost no effect)) | herbicidal effect on persian speedwell (R) (persian speedwell): 5 (Herbicidal rate of 90% or more (almost completely withered)) | herbicidal effect rating, A: late watergrass (late watergrass): 0 (Herbicidal rate of 5% or less (almost no effect)) | J: blackgrass, herbicidal effect grade (blackgrass [6]): 1 (Herbicidal rate of 5% or more and less than 20%) | I: wild oat, herbicidal effect grade (wild oat): 0 (Herbicidal rate of 5% or less (almost no effect)) | O: lambsquarters, herbicidal effect grade (lambsquarters): 4 (Herbicidal rate of 70% or more and less than 90%) | G: green foxtail, herbicidal effect grade (green foxtail): 1 (Herbicidal rate of 5% or more and less than 20%) | K: Italian ryegrass, herbicidal effect grade (Italian ryegrass [7]): 3 (Herbicidal rate of 40% or more and less than 70%) | herbicidal effect on Italian ryegrass (K) (Italian ryegrass [8]): 3 (Herbicidal rate of 40% or more and less than 70%)
